Six compounds from patent US10800789B2, “Antiviral compounds” (Gilead Pharmasset LLC, priority 2012, dated 2020) can be followed below.

The structures appear in SMILES notation. Read-outs that look alike come from different tables or passages of the source.

Test [1] concerns stable HCV 1b RLuc replicon cells (dicistronic genotype 1b Con1 replicon). Nature of the test: Renilla luciferase HCV replicon reporter assay, genotype 1b. The test is classed as cell-based. The note with it: stable 1b Con1 RLuc replicon cells, 72 hours, read-out: 1b. The essentials: (§1)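 Antiviral EC50 was determined in HCV replicon cells (stable RLuc lines for 1a H77, 1b Con1, 2a JFH-1 with NS5A L31; J6 NS5A chimera with M31) treated 72 h with compound. Renilla luciferase was then quantified.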
(In antiviral work, replicon cells carry a viral genome segment that copies itself.)

For test [2], the system named is NS5A chimeric genotype 2a JFH-1 replicon with genotype 2a J6 strain NS5A gene (M31 present). Briefly: Replicon assay, genotype 2a J6 NS5A chimera. The class given is cell-based, HCV. A digest of the protocol:
as §1

Test [3] deals with NS5A chimeric genotype 1b Con1 replicon with genotype 4a ED43 strain NS5A gene. Briefly: Replicon assay, genotype 4a NS5A chimera. The test is classed as cell-based, HCV.
The test system of test [4] is stable HCV 1a RLuc replicon cells (dicistronic genotype 1a H77 replicon). Nature of the test: Renilla luciferase HCV replicon reporter assay, genotype 1a. The class given is cell-based. The note with it: stable 1a H77 RLuc replicon cells. The essentials:
as §1

Test [5] relates to NS5A chimeric genotype 1b Con1 replicon with genotype 3a S52 strain NS5A gene. Nature of the test: Replicon assay, genotype 3a NS5A chimera. The test is classed as cell-based, HCV.
Test [6] relates to NS5A chimeric genotype 2a JFH-1 replicon with genotype 2b MD2b-1 strain NS5A gene (M31 present). Nature of the test: Replicon assay, genotype 2b NS5A chimera. The class given is cell-based, HCV. A digest of the protocol:
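Cells carrying the stable or transiently transfected (Huh-Lunet) dicistronic RLuc replicons received 3-fold serial compound dilutions from 10 mM DMSO stocks. After 72 h, cells were lysed and Renilla luciferase read. DMSO served as the no-inhibition control and ITMN-191 above 100×EC50 as the positive control; EC50 by non-linear regression.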

The test system of test [7] is stable HCV 2a JFH-1 Rluc replicon cells (L31 present in NS5A). Briefly: Renilla luciferase HCV replicon reporter assay, genotype 2a JFH-1. The class given is cell-based. A digest of the protocol:
as §1

The mark [8] stands for this setting: Hepatitis C virus, read-out: 2a J6 (t) (nM), genotype 2a J6 NS5A chimeric replicon (M31), transiently transfected (t) into Huh-Lunet cells.
[9] abbreviates: Hepatitis C virus, read-out: 2a J6 (t), transiently transfected (t) into Huh-Lunet cells, activity range.
[10] abbreviates: Hepatitis C virus, read-out: 4a (s) (nM), genotype 4a NS5A chimeric replicon, stable replicon cells (s).
Where [11] appears, read: Hepatitis C virus, read-out: 4a (s), (s), activity range.
Setting [12] is: Hepatitis C virus, 72 h, activity range.
[13] abbreviates: Hepatitis C virus, read-out: 3a (s) (nM), genotype 3a NS5A chimeric replicon, stable replicon cells (s).
The mark [14] stands for this setting: Hepatitis C virus, read-out: 3a (s), (s), activity range.
The mark [15] stands for this setting: Hepatitis C virus, 2BS, read-out: 2b (s), stably replicating replicon cells (s), activity range.
Where [16] appears, read: Hepatitis C virus, read-out: 2b (s) (nM), genotype 2b MD2b-1 NS5A chimeric replicon (M31), stably replicating replicon cells (s).
[17] abbreviates: Hepatitis C virus, read-out: 2a JFH (nM), genotype 2a JFH-1 replicon (L31 in NS5A), stable cells.
Setting [18] is: Hepatitis C virus, read-out: 2a JFH, stable 2a JFH-1 Rluc replicon cells, L31 in NS5A, activity range.
[19] abbreviates: Hepatitis C virus, read-out: 2b (t) (nM), genotype 2b MD2b-1 NS5A chimeric replicon (M31), transiently transfected (t).
Where [20] appears, read: Hepatitis C virus, read-out: 2b (t), transiently transfected (t) into Huh-Lunet cells, activity range.

Turning to `COC[C@H]1C[C@@H](c2ncc(-c3ccc4c(c3)COc3cc5c(ccc6nc([C@@H]7C[C@H](COC)CN7C(=O)[C@@H](NC(=O)OC)[C@@H](C)OC)[nH]c65)cc3-4)[nH]2)N(C(=O)[C@@H](NC(=O)OC)[C@@H](C)OC)C1` [EX, Methyl {(2S,3R)-3-methoxy-1-[(2S,4S)-2-(9-{2-[(2S,4S)-1-[N-(methoxycarbonyl)-O-methyl-L-threonyl]-4-(methoxymethyl)pyrrolidin-2-yl]-1H-imidazol-5-yl}-1,11-dihydroisochromeno[4′,3′:6,7]naphtho[1,2-d]imidazol-2-yl)-4-(methoxymethyl)pyrrolidin-1-yl]-1-oxobutan-2-yl}carbamate], the EC50 was 0.197 nM in test [1] (Hepatitis C virus, 72 h); 0.052 nM in test [2] (setting [8]); under 0.1 nM in test [2] (setting [9]); 0.072 nM in test [3] (setting [10]); under 0.1 nM in test [3] (setting [11]); 0.079 nM in test [4] (Hepatitis C virus, 72 h). Moreover, the EC50 was under 0.1 nM in test [4] (setting [12]); 1.69 nM in test [5] (setting [13]); 1 to 44 nM in test [5] (setting [14]); 0.1 to 0.999 nM in test [6] (setting [15]); 0.393 nM in test [6] (setting [16]); 0.027 nM in test [7] (setting [17]). Further, the EC50 in test [7] (setting [18]) was under 0.1 nM.

`COC(=O)N[C@H](C(=O)N1C[C@@H](C)C[C@H]1c1ncc(-c2ccc3c(c2)COc2cc4c(ccc5nc([C@@H]6C[C@H](C)CN6C(=O)[C@@H](NC(=O)OC)[C@@H](C)OC)[nH]c54)cc2-3)[nH]1)[C@@H](C)OC` [EZ, Methyl [(2S,3R)-3-methoxy-1-{(2S,4S)-2-[9-(2-{(2S,4S)-1-[N-(methoxycarbonyl)-O-methyl-L-threonyl]-4-methylpyrrolidin-2-yl}-1H-imidazol-5-yl)-1,11-dihydroisochromeno[4′,3′:6,7]naphtho[1,2-d]imidazol-2-yl]-4-methylpyrrolidin-1-yl}-1-oxobutan-2-yl]carbamate]: the EC50 was 0.084 nM in test [1] (Hepatitis C virus, 72 h); 0.036 nM in test [2] (setting [8]); under 0.1 nM in test [2] (setting [9]); 0.025 nM in test [3] (setting [10]); under 0.1 nM in test [3] (setting [11]); 0.028 nM in test [4] (Hepatitis C virus, 72 h). Besides, the EC50 in test [4] (setting [12]) was under 0.1 nM; in test [5] (setting [13]), 0.263 nM; in test [5] (setting [14]), 0.1 to 0.999 nM; in test [6] (setting [15]), 0.1 to 0.999 nM; in test [6] (setting [16]), 0.262 nM; in test [7] (setting [17]) it was 0.016 nM. Also, the EC50 in test [7] (setting [18]) is under 0.1 nM.

As for `COC(=O)N[C@H](C(=O)N1C[C@@H](C)C[C@H]1c1ncc(-c2ccc3c(c2)COc2cc4c(ccc5nc([C@@H]6CC[C@H](C)N6C(=O)[C@@H](NC(=O)OC)C6CCOCC6)[nH]c54)cc2-3)[nH]1)C(C)C` [FN, Methyl [(2S)-1-{(2S,4S)-2-[5-(2-{(2S,5S)-1-[(2S)-2-[(methoxycarbonyl)amino]-2-(tetrahydro-2H-pyran-4-yl)acetyl]-5-methylpyrrolidin-2-yl}-1,11-dihydroisochromeno[4′,3′:6,7]naphtho[1,2-d]imidazol-9-yl)-1H-imidazol-2-yl]-4-methylpyrrolidin-1-yl}-3-methyl-1-oxobutan-2-yl]carbamate], the EC50 in test [1] (Hepatitis C virus, 72 h) is 0.053 nM; in test [2] (setting [8]) it was 0.068 nM; in test [2] (setting [9]) it was under 0.1 nM; in test [3] (setting [10]), 0.02 nM; in test [3] (setting [11]), under 0.1 nM; in test [4] (Hepatitis C virus, 72 h), 0.035 nM. The EC50 in test [4] (setting [12]) is under 0.1 nM; in test [5] (setting [13]), 0.084 nM; in test [5] (setting [14]), under 0.1 nM; in test [6] (setting [15]) it was 0.1 to 0.999 nM; in test [6] (setting [16]) it was 0.142 nM; in test [7] (setting [17]), 0.028 nM. Further, the EC50 in test [7] (setting [18]) was under 0.1 nM.

With `COC[C@H]1C[C@@H](c2nc(C3CC3)c(-c3ccc4c(c3)COc3cc5c(ccc6nc([C@@H]7CC[C@H](C)N7C(=O)[C@@H](NC(=O)OC)C(C)C)[nH]c65)cc3-4)[nH]2)N(C(=O)[C@H](NC(=O)OC)c2ccccc2)C1` [FV, Methyl {(1R)-2-[(2S,4S)-2-(4-cyclopropyl-5-{2-[(2S,5S)-1-{(2S)-2-[(methoxycarbonyl)amino]-3-methylbutanoyl}-5-methylpyrrolidin-2-yl]-1,11-dihydroisochromeno[4′,3′:6,7]naphtho[1,2-d]imidazol-9-yl}-1H-imidazol-2-yl)-4-(methoxymethyl)pyrrolidin-1-yl]-2-oxo-1-phenylethyl}carbamate], the EC50 in test [1] was 0.036 nM; in test [2] (read-out: 2a J6 (t), genotype 2a J6 NS5A chimeric replicon (M31), transiently transfected (t) into Huh-Lunet cells) it was 3.78 nM; in test [2] (read-out: 2a J6 (t), transiently transfected (t) into Huh-Lunet cells, activity range) it was 1 to 44 nM; in test [3] (read-out: 4a (s), (s), activity range), under 0.1 nM; in test [3] (read-out: 4a (s), genotype 4a NS5A chimeric replicon, stable replicon cells (s)) it was 0.029 nM; in test [4] (72 hours) it was 0.023 nM. Also, the EC50 in test [4] (72 hours, activity range) was under 0.1 nM; in test [5] (read-out: 3a (s), (s), activity range) it was 1 to 44 nM; in test [5] (read-out: 3a (s), genotype 3a NS5A chimeric replicon, stable replicon cells (s)), 5.25 nM; in test [6] (setting [19]), 0.772 nM; in test [6] (setting [20]), 0.1 to 0.999 nM; in test [6] (read-out: 2b (s), genotype 2b MD2b-1 NS5A chimeric replicon (M31), stably replicating replicon cells (s)), 2.55 nM. For the same compound, the EC50 in test [6] (read-out: 2b (s), stably replicating replicon cells (s), activity range) was 1 to 44 nM; in test [7] (read-out: 2a JFH, genotype 2a JFH-1 replicon (L31 in NS5A), stable cells), 0.111 nM; in test [7] (read-out: 2a JFH, stable 2a JFH-1 Rluc replicon cells, L31 in NS5A, activity range), 0.1 to 0.999 nM.

`COC[C@H]1C[C@@H](c2ncc(-c3ccc4c(c3)COc3cc5c(ccc6nc([C@@H]7C[C@H](C)CN7C(=O)[C@@H](NC(=O)OC)[C@@H](C)OC)[nH]c65)cc3-4)[nH]2)N(C(=O)[C@@H](NC(=O)OC)[C@@H](C)OC)C1` [FW, Methyl {(2S,3R)-3-methoxy-1-[(2S,4S)-2-(9-{2-[(2S,4S)-1-[N-(methoxycarbonyl)-O-methyl-L-threonyl]-4-(methoxymethyl)pyrrolidin-2-yl]-1H-imidazol-5-yl}-1,11-dihydroisochromeno[4′,3′:6,7]naphtho[1,2-d]imidazol-2-yl)-4-methylpyrrolidin-1-yl]-1-oxobutan-2-yl}carbamate]: the EC50 in test [1] (Hepatitis C virus, 72 h) is 0.187 nM; in test [2] (setting [8]), 0.104 nM; in test [2] (setting [9]), 0.1 to 0.999 nM; in test [3] (setting [10]), 0.08 nM; in test [3] (setting [11]) it was under 0.1 nM; in test [4] (Hepatitis C virus, 72 h), 0.121 nM. Besides, the EC50 in test [4] (setting [12]) was 0.1 to 0.999 nM; in test [5] (setting [13]), 1.17 nM; in test [5] (setting [14]) it was 1 to 44 nM; in test [6] (setting [15]) it was 0.1 to 0.999 nM; in test [6] (setting [16]) it was 0.773 nM; in test [6] (setting [19]), 0.399 nM. Moreover, the EC50 is 0.1 to 0.999 nM in test [6] (setting [20]), 0.054 nM in test [7] (setting [17]) and under 0.1 nM in test [7] (setting [18]).

`COC[C@H]1C[C@@H](c2ncc(-c3ccc4c(c3)COc3cc5c(ccc6nc([C@@H]7CC[C@H](C)N7C(=O)[C@@H](NC(=O)OC)[C@@H](C)OC)[nH]c65)cc3-4)[nH]2)N(C(=O)[C@@H](NC(=O)OC)[C@@H](C)OC)C1` [FX, Methyl {(2S,3R)-3-methoxy-1-[(2S,5S)-2-(9-{2-[(2S,4S)-1-[N-(methoxycarbonyl)-O-methyl-L-threonyl]-4-(methoxymethyl)pyrrolidin-2-yl]-1H-imidazol-5-yl}-1,11-dihydroisochromeno[4′,3′:6,7]naphtho[1,2-d]imidazol-2-yl)-5-methylpyrrolidin-1-yl]-1-oxobutan-2-yl}carbamate]: the EC50 in test [1] (Hepatitis C virus, 72 h) was 0.06 nM; in test [2] (setting [8]), 0.064 nM; in test [2] (setting [9]) it was under 0.1 nM; in test [3] (setting [10]) it was 0.031 nM; in test [3] (setting [11]), under 0.1 nM; in test [4] (Hepatitis C virus, 72 h), 0.041 nM. For the same compound, the EC50 in test [4] (setting [12]) is under 0.1 nM; in test [5] (setting [13]), 0.243 nM; in test [5] (setting [14]), 0.1 to 0.999 nM; in test [6] (setting [15]), 0.1 to 0.999 nM; in test [6] (setting [16]), 0.288 nM; in test [6] (setting [19]), 0.122 nM. Further, the figures for the EC50 in test [6] (setting [20]), in test [7] (setting [17]) and in test [7] (setting [18]) were 0.1 to 0.999 nM, 0.024 nM and under 0.1 nM, respectively.
